Measurements reported in US12024503B2, “Benzethers and anilines of pyrazolyl-amino-pyrimidinyl derivatives, and compositions and methods thereof” (LYNK PHARMACEUTICALS CO. LTD., priority 2019, dated 2024).
Where two headings read alike, the source gives them in different places.

Columns and labels:
Type in all cases: biochemical
JAK1 = target: T1, JAK1 (Homo sapiens, UniProt P23458); experiment: JAK1 microfluidic kinase assay (Caliper EZ Reader II, FAM labeled peptide substrate); conditions: (5 nM), 1 mM ATP
T1 construct: purchased Carna Biosciences
T1 sequence (P23458 whole entry): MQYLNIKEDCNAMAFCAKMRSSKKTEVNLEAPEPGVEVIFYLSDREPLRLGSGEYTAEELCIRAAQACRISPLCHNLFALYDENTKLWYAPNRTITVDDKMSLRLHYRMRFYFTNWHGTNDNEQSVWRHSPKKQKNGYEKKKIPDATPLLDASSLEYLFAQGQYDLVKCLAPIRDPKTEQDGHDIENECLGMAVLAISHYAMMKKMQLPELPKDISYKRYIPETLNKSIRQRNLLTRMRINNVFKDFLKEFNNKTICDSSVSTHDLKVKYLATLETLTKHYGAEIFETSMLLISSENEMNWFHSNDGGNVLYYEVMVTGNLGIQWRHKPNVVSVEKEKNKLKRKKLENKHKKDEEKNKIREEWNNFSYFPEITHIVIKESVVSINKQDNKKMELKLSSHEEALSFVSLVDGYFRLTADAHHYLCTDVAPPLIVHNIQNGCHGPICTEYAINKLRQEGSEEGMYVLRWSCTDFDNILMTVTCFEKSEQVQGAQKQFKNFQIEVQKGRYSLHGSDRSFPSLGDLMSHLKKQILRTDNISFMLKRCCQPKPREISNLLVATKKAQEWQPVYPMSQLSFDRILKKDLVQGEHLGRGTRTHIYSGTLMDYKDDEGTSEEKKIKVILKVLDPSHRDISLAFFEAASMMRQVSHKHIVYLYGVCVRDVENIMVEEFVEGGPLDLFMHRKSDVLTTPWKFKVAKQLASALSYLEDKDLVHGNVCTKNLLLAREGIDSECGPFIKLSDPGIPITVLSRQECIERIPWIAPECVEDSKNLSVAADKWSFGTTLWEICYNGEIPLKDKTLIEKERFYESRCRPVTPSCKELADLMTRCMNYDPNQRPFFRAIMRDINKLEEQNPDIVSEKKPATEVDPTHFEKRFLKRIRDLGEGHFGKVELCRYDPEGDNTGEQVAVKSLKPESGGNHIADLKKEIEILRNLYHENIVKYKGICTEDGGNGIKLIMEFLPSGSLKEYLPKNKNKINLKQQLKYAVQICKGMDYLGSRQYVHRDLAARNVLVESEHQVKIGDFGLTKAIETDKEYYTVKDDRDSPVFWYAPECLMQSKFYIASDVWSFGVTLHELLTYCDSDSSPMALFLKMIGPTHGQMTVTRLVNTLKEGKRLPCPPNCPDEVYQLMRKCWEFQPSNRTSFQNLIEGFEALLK
Method: (§1) Compounds were tested against JAK1, JAK2, JAK2V617F and TYK2.
(§2) Assay Formats: JAK activity was determined in the reaction buffer 50 mM HEPES, 0.01% Brij35, 10 mMMgCl2, 2 mMDTT by a microfluidic assay. The phosphorylation of a FAM labeled peptide substrate was monitored in the Caliper EZ Reader II (Perkin Elmer). The assay condition for each batch of enzyme (Carna Biosciences) was optimized to obtain 10% conversion rate of peptide substrate.
(§3) The test compounds were dissolved in DMSO to a stock concentration of 10 mM. 3-fold serially diluted compounds with top concentration of 5 μM were pre-incubated with JAK1, JAK2, JAK2V617F or TYK2 for 10 min at ambient temperature. The final DMSO concentration of assay mixture was 1%. FAM labeled peptide substrate (final concentration […]) and ATP (1 mM concentration) were sequentially added to initiate the kinase reaction at 28° C. The reaction was stopped by adding 50 mMEDTA. The reaction time for JAK1, JAK2, JAK2V617F and TYK2 was 120 min, 20 min, 30 min and 10 min, respectively.
(§4) The well in the test plate without enzyme was defined as 100% inhibition. And the well without compound but with equivalent DMSO was defined as no inhibition. The percent inhibition was calculated by the following formula. % Inhibition=(Conversionmax−Conversionsample)/(Conversionmax−Conversionmin)*100Conversionmax means the conversion rate in the positive well without addition of compound Conversionmin means the conversion rate in the well without addition of enzyme Conversionsample means the conversion rate of test compounds
(§5) The dose-response (percent inhibition) curve was plotted and IC50 values were determined by GraphPad software.

JAK2V617F = target: T2, JAK2V617F (Homo sapiens, UniProt O60674, V617F); experiment: JAK2V617F microfluidic kinase assay (Caliper EZ Reader II, FAM labeled peptide substrate); conditions: (2.5 nM), 1 mM ATP
T2 construct: purchased Carna Biosciences
T2 sequence (O60674 whole entry V617F): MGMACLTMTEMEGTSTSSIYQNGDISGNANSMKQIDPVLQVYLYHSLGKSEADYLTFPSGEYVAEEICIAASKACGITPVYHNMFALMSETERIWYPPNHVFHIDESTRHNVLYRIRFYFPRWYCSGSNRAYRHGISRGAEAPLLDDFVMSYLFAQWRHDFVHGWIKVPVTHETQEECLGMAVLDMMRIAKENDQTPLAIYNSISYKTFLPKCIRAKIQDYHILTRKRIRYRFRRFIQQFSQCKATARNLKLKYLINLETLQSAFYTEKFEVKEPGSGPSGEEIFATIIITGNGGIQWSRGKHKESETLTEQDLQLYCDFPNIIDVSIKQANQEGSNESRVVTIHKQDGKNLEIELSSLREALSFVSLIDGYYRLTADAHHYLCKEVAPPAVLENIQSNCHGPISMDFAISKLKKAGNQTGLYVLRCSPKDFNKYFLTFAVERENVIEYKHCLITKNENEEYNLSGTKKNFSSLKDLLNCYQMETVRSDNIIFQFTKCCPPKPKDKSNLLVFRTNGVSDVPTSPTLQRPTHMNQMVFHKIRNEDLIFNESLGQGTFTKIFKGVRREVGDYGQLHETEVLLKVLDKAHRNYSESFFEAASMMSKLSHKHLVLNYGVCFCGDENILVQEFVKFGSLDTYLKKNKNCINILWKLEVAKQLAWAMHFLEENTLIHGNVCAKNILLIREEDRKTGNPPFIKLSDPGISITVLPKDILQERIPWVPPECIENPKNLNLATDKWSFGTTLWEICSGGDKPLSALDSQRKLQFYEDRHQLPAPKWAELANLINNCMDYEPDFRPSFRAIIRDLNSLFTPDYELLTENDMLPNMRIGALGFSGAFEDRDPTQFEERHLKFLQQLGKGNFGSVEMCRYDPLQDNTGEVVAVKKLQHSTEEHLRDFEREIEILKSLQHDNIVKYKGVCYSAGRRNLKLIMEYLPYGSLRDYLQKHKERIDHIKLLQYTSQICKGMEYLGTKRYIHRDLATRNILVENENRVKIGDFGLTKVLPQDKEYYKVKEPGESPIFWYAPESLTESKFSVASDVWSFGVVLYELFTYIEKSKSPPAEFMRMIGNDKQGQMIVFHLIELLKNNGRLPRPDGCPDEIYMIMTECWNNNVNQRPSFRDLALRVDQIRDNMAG
Method: as §1, §2, §3, §4, §5

JAK2 = target: T3, JAK2 (Homo sapiens, UniProt O60674); experiment: JAK2 microfluidic kinase assay (Caliper EZ Reader II, FAM labeled peptide substrate); conditions: (0.25 nM), 1 mM ATP
T3 construct: purchased Carna Biosciences
T3 sequence (O60674 whole entry): as the sequence (O60674 whole entry V617F) above, with F617V counted along it
Method: as §1, §2, §3, §4, §5

[1] = Table 2, read-out: IC50 JAK1 (5 nM) (1 mM ATP)
[2] = Table 2, read-out: IC50 J2V617F (2.5 nM) (1 mM ATP)
[3] = Table 2, read-out: IC50 JAK2 (0.25 nM) (1 mM ATP)
[4] = Table 3B, literature compounds, read-out: JAK1 (5 nM) (1 mM ATP)
[5] = Table 3B, literature compounds, read-out: JAK2 (0.25 nM) (1 mM ATP)
[6] = Table 3B, literature compounds, read-out: J2V617F (2.5 nM) (1 mM ATP)

Row | SMILES | IC50 (JAK1; [1]) | IC50 (JAK2V617F; [2]) | other results
1 | Cc1cnc(Nc2cnn(C3CC3)c2)nc1-c1ccc(OC2CC(C#N)C2)cc1 (centres unmarked) [Example 2, 3-(4-(2-((1-cyclopropyl-1H-pyrazol-4-yl)amino)-5-methylpyrimidin-4-yl)phenoxy)cyclobutanecarbonitrile] | 72.7 nM | 171 nM | 
2 | Cc1cnc(Nc2cnn(C3CCN(C(=O)C4CC4)CC3)c2)nc1-c1ccc(OCC2(C#N)CC2)c(F)c1 [Example 8, 1-((4-(2-((1-(1-(cyclopropanecarbonyl)piperidin-4-yl)-1H-pyrazol-4-yl)amino)-5-methylpyrimidin-4-yl)-2-fluorophenoxy)methyl)cyclopropane-carbonitrile] | 6.2 nM | < 1.25 nM | 
3 | Cc1cnc(Nc2cnn(C3CCN(C(=O)C4(C)CC4)CC3)c2)nc1-c1ccc(OCC2(C#N)CC2)c(F)c1 [Example 9, 1-((2-fluoro-4-(5-methyl-2-((1-(1-(1-methylcyclopropanecarbonyl)piperidin-4-yl)-1H-pyrazol-4-yl)amino)pyrimidin-4-yl)phenoxy)methyl)cyclopropane-carbonitrile] | 7.06 nM | < 1.25 nM | 
4 | Cc1cnc(Nc2cnn(C3CC3)c2)nc1-c1cc(F)c(OCC2(C#N)CC2)c(F)c1 [Example 10, 1-((4-(2-((1-cyclopropyl-1H-pyrazol-4-yl)amino)-5-methylpyrimidin-4-yl)-2,6-difluorophenoxy)methyl)cyclopropane carbonitrile] | 124 nM | 113 nM | 
5 | CC(=O)N1CCC(n2cc(Nc3ncc(C)c(-c4ccc(OCC5(C#N)CC5)c(F)c4)n3)cn2)CC1 [Example 13, 1-((4-(2-((1-(1-acetylpiperidin-4-yl)-1H-pyrazol-4-yl)amino)-5-methylpyrimidin-4-yl)-2-fluorophenoxy)methyl)cyclopropane-carbonitrile] | 5.58 nM | < 1.25 nM | 
6 | Cc1cnc(Nc2cnn(C3CCOCC3)c2)nc1-c1ccc(OCC(C)(C)C#N)cc1 [Example 15, 2,2-dimethyl-3-(4-(5-methyl-2-((1-(tetrahydro-2H-pyran-4-yl)-1H-pyrazol-4-yl)amino)pyrimidin-4-yl)phenoxy)propanenitrile] | 5.71 nM | < 1.25 nM | 
7 | Cc1cnc(Nc2cnn(C3CCOCC3)c2)nc1-c1ccc(OC(C)C(C)(C)C#N)cc1 (centres unmarked) [Example 16, 2,2-dimethyl-3-(4-(5-methyl-2-((1-(tetrahydro-2H-pyran-4-yl)-1H-pyrazol-4-yl)amino)pyrimidin-4-yl)phenoxy)butanenitrile] | 39.2 nM | 6.33 nM | 
8 | N#CC1(COc2ccc(-c3nc(Nc4cnn(C5CCOCC5)c4)ncc3F)cc2F)CC1 [Example 22, 1-((2-fluoro-4-(5-fluoro-2-((1-(tetrahydro-2H-pyran-4-yl)-1H-pyrazol-4-yl)amino)pyrimidin-4-yl)phenoxy)methyl)cyclopropane-carbonitrile] | 136 nM | 56.8 nM | 
9 | N#CC1(COc2ccc(-c3nc(Nc4cnn(C5CCOCC5)c4)ncc3Cl)cc2F)CC1 [Example 23, 1-((4-(5-chloro-2-((1-(tetrahydro-2H-pyran-4-yl)-1H-pyrazol-4-yl)amino)pyrimidin-4-yl)-2-fluorophenoxy)methyl)cyclopropane-carbonitrile] | 13.6 nM | < 1.25 nM | 
10 | N#CC1(COc2ccc(-c3nc(Nc4cnn(C5CC5)c4)ncc3F)cc2F)CC1 [Example 24, 1-((4-(2-((1-cyclopropyl-1H-pyrazol-4-yl)amino)-5-fluoropyrimidin-4-yl)-2-fluorophenoxy)methyl)cyclopropane-carbonitrile] | 84.2 nM | 111 nM | 
11 | CC(C)(C#N)COc1ccc(-c2nc(Nc3cnn(C4CCOCC4)c3)ncc2F)cc1F [Example 25, 3-(2-fluoro-4-(5-fluoro-2-((1-(tetrahydro-2H-pyran-4-yl)-1H-pyrazol-4-yl)amino)pyrimidin-4-yl)phenoxy)-2,2-dimethylpropanenitrile] | 32 nM | 32 nM | 
12 | CC(C)(C#N)COc1ccc(-c2nc(Nc3cnn(C4CCOCC4)c3)ncc2Cl)cc1F [Example 26, 3-(4-(5-chloro-2-((1-(tetrahydro-2H-pyran-4-yl)-1H-pyrazol-4-yl)amino)pyrimidin-4-yl)-2-fluorophenoxy)-2,2-dimethylpropanenitrile] | 6.17 nM | < 1.25 nM | 
13 | N#CC1(COc2ccc(-c3nc(Nc4cnn(C5CC5)c4)ncc3Cl)cc2F)CC1 [Example 27, 1-((4-(5-chloro-2-((l-cyclopropyl-1H-pyrazol-4-yl)amino)pyrimidin-4-yl)-2-fluorophenoxy)methyl)cyclopropane carbonitrile] | 5.53 nM | 1.49 nM | 
14 | CC(=O)N1CCC(n2cc(Nc3ncc(C)c(-c4ccc(OCC(C)(C)C#N)c(F)c4)n3)cn2)CC1 [Example 28, 3-(4-(2-((1-(1-acetylpiperidin-4-yl)-1H-pyrazol-4-yl)amino)-5-methylpyrimidin-4-yl)-2-fluorophenoxy)-2,2-dimethylpropanenitrile] | < 2.5 nM | < 1.25 nM | 
15 | Cc1cnc(Nc2cnn(CC#N)c2)nc1-c1ccc(OCC(C)(C)C#N)c(F)c1 [Example 30, 3-(4-(2-((1-(cyanomethyl)-1H-pyrazol-4-yl)amino)-5-methylpyrimidin-4-yl)-2-fluorophenoxy)-2,2-dimethylpropanenitrile] | < 2.5 nM |  | IC50 (JAK2; [3]): 0.3 nM
16 | Cc1cnc(Nc2cnn(CC#N)c2)nc1-c1ccc(OCC2(C#N)CC2)c(F)c1 [Example 31, 1-((4-(2-((1-(cyanomethyl)-1H-pyrazol-4-yl)amino)-5-methylpyrimidin-4-yl)-2-fluorophenoxy)methyl)cyclopropane-carbonitrile] | 7.94 nM |  | IC50 (JAK2; [3]): 3.2 nM
17 | Cc1cnc(Nc2cnn(C3CC3)c2)nc1-c1ccc2c(c1)CC(C#N)CO2 (centres unmarked) [Example 34, 6-(2-((1-cyclopropyl-1H-pyrazol-4-yl)amino)-5-methylpyrimidin-4-yl)chroman-3-carbonitrile] | 136 nM |  | IC50 (JAK2; [3]): 58.8 nM
18 | Cc1cnc(Nc2cnn(C3CC3)c2)nc1-c1ccc(N(C)CC(C)(C)C#N)c(F)c1 [Example 35, 3-((4-(2-((1-cyclopropyl-1H-pyrazol-4-yl)amino)-5-methylpyrimidin-4-yl)-2-fluorophenyl)(methyl)amino)-2,2-dimethylpropanenitrile] | 72.1 nM |  | IC50 (JAK2; [3]): 1.66 nM
19 | CN(CC(C)(C)C#N)c1ccc(-c2nc(Nc3cnn(C4CC4)c3)ncc2Cl)cc1F [Example 36, 3-((4-(5-chloro-2-((1-cyclopropyl-1H-pyrazol-4-yl)amino)pyrimidin-4-yl)-2-fluorophenyl)(methyl)amino)-2,2-dimethylpropanenitrile] | 103 nM |  | IC50 (JAK2; [3]): 4.6 nM
20 | COc1ccc(-c2nc(Nc3cnn(C)c3)ncc2C)cc1F [Example 45, 4-(3-fluoro-4-methoxyphenyl)-5-methyl-N-(1-methyl-1H-pyrazol-4-yl)pyrimidin-2-amine, reference compound] |  |  | IC50 (JAK1; [4]): 110 nM; IC50 (JAK2; [5]): 121 nM; IC50 (JAK2V617F; [6]): 206 nM
21 | Cc1cnc(Nc2cnn(C)c2)nc1-c1ccc(OC(C)C)c(F)c1 [Example 47, 4-(3-fluoro-4-isopropoxyphenyl)-5-methyl-N-(1-methyl-1H-pyrazol-4-yl)pyrimidin-2-amine, reference compound] |  |  | IC50 (JAK1; [4]): 48.6 nM; IC50 (JAK2; [5]): 61.3 nM; IC50 (JAK2V617F; [6]): 84.2 nM
